The source of these data is patent US10648012B2, “Assay for inhibitors of equilibrative or concentrative nucleoside transporters” (ALBERT EINSTEIN COLLEGE OF MEDICINE OF YESHIVA UNIVERSITY, priority 2013, dated 2020).

Where two headings read alike, the source gives them in different places.

The target in series [1] is T1, PfENT1 (Plasmodium falciparum, UniProt Q8IDM6).
T1 sequence (Q8IDM6 1-422): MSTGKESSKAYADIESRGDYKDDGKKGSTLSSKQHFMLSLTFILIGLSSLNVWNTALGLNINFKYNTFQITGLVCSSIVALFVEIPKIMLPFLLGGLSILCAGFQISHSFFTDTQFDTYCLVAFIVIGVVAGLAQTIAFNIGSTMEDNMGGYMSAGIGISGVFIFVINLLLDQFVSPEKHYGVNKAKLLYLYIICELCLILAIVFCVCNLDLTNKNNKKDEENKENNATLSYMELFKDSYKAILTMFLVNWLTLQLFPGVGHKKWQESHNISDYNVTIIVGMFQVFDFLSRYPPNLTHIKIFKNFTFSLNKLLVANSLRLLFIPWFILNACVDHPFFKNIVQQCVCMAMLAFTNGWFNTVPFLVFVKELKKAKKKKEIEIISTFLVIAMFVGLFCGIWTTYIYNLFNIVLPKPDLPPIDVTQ
The following applies: cited from earlier work.

Series [2] concerns the target T1, PfENT1. Put plainly: Inhibition of [3H]-adenine uptake by PfENT1-expressing Xenopus oocytes. The following applies: increasing concentrations of 5-FUrd. Format: cell-based.
The subject of the next series is fui1Δ yeast. Put plainly: 5-FUrd cytotoxicity assay, growth (OD600) of parental fui1Δ yeast. Format: cell-based. The following applies: Saccharomyces cerevisiae, 9.5 h, read-out: 5-FUrd IC50 for killing. The method, then:
(§1) Concentration dependence of 5-FUrd cytotoxic effects on PfENT1-expressing fui1Δ S. cerevisiae and on the parental fui1Δ strain: To determine the dose-response relationship for killing by 5 FUrd, 200 μl cultures in rich media (yeast extract, peptone, 2% dextrose, YPD) were inoculated with 3×10^6 cells/ml of PfENT1-expressing fui1Δ yeast and fui1Δ yeast. The cultures were grown in 96-well microtiter plates at 30° C., without shaking, in the absence of and in the presence of increasing concentrations of 5-FUrd (range 0.1-1,000 μM). After 570 minutes, the OD600 was measured using a BioRad Benchmark Plus microplate reader to determine the extent of cell growth. The OD600 was plotted as a function of drug concentration and the IC50 for 5-FUrd was calculated (FIG. 2). […] Though yeast grow optimally with constant aeration, a similar 5-FUrd IC50 was obtained for PfENT1-expressing fui1Δ yeast whether the plate was shaken continuously at 200 rpm or unshaken for 570 minutes of growth (IC50=9 μM).

Series [3] is described as follows: 5-FUrd stability under the assay growth conditions. The series is classed as physicochemical. The note with it: 30° C. The method, then:
5-FUrd Stability. Stability of 5-FUrd under the assay conditions is essential. The assay will involve yeast growth in the presence of 5-FUrd for 10-16 hrs at 30° C. To test 5-FUrd stability a sample of 5-FUrd was split into two aliquots. One was stored at −20° C. and the other at 30° C. for 90 hrs. The 5-FUrd IC50 was then determined for WT yeast as described above. […] Thus, 5-FUrd is stable under the assay growth conditions for at least 90 hrs. The assay should only require 10-16 hrs of growth, so 5-FUrd is stable on the timescale of the assay.

For a further series, the system named is WT yeast. Nature of the series: 5-FUrd IC50 on WT yeast after storage of the 5-FUrd sample. Format: cell-based. The note with it: Saccharomyces cerevisiae, 90 h. The method, then: as §1
5-FUrd Stability. Stability of 5-FUrd under the assay conditions is essential. The assay will involve yeast growth in the presence of 5-FUrd for 10-16 hrs at 30° C. To test 5-FUrd stability a sample of 5-FUrd was split into two aliquots. One was stored at −20° C. and the other at 30° C. for 90 hrs. The 5-FUrd IC50 was then determined for WT yeast as described above. […]

Series [4] deals with PfENT1-expressing fui1Δ yeast. Nature of the series: 5-FUrd cytotoxicity assay, growth (OD600) of PfENT1-expressing fui1Δ yeast. Format: cell-based. The note with it: Saccharomyces cerevisiae, 9.5 h. The method, then:
as §1

Turning to `O=[N+]([O-])c1ccc(CSc2ncnc3c2ncn3[C@@H]2O[C@H](CO)[C@@H](O)[C@H]2O)cc1` [p-nitrobenzylthioinosine], on PfENT1 [1], the “inhibition of PfENT1” value was “do not inhibit”.
Take `COc1cc(C(=O)OCCCN2CCCN(CCCOC(=O)c3cc(OC)c(OC)c(OC)c3)CC2)cc(OC)c1OC` [dilazep]: at PfENT1 [1], the “inhibition of PfENT1” value was “do not inhibit”.
On PfENT1 [2], `O=c1[nH]c(=O)n([C@@H]2O[C@H](CO)[C@@H](O)[C@H]2O)cc1F` [5-FUrd, 5-fluorouridine] came in with a Ki of 1100 µM. The concentration for half-maximal inhibition (IC50) worked out at 6400 µM in the series with fui1Δ yeast; 60 ± 3 µM with WT yeast (5-FUrd sample stored at 30° C. for 90 hrs, n=3); 46 ± 2 µM in the series on WT yeast (5-FUrd sample stored at −20° C. for 90 hrs); 9 µM in series [4] (read-out: 5-FUrd IC50, shaken versus unshaken comparison); 12 µM in series [4] (read-out: 5-FUrd IC50 for killing). For the same compound, the “time stable under the assay growth conditions” value in series [3] is on record as “at least 90 hrs”.
Turning to `OCCN(CCO)c1nc(N2CCCCC2)c2nc(N(CCO)CCO)nc(N3CCCCC3)c2n1` [dipyridamole], on PfENT1 [1], the “inhibition of PfENT1” value is recorded as “do not inhibit”.

In general, Ki refers to the equilibrium dissociation constant of an inhibitor or competing ligand from its target. What is called IC50 is the midpoint of a concentration-inhibition curve.
